Measured values published in the METLIN SMRT retention time set (Domingo-Almenara et al. 2019).

Assay: gradient 5% acetonitrile 3 min, to 50% in 2 min, to 85% in 15 min, held 3 min, 100 µL/min
Details: column: Zorbax Extend-C18 2.1 x 50 mm; eluents: water / acetonitrile, 0.1% formic acid
Method in brief: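 Pure standards were run in mixtures of ~100 molecules by HPLC coupled to a quadrupole time-of-flight mass spectrometer. The column was a Zorbax Extend-C18 (2.1 × 50 mm, 1.8 μm) at 100 μL/min, with water and acetonitrile each containing 0.1% formic acid, in positive and negative ionization mode. Dead and dwell volumes were 40 μL and 900 μL. Retention time was taken from computationally picked adduct peaks, each manually inspected, with data collected over 3 months.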

Row | Structure (SMILES) | RP-LC retention time [s]
1 | COCCNC(=O)C1c2cc(OC)c(OC)cc2C(=O)N(C)C1c1ccc(OC)cc1 (configuration not stated) | 661
2 | COc1ccc(S(=O)(=O)N(C)CCCC(=O)O)cc1N(C)S(C)(=O)=O | 633
3 | COc1ccc(Nc2ccc3c(=O)c(-c4ccccc4OC)c(C)oc3c2)cc1 | 947
4 | C/C(O)=C(\C#N)C(=O)Nc1ccc(C(F)(F)F)cc1 | 858
5 | NS(=O)(=O)c1cccnc1Nc1cc(F)cc(F)c1 | 858
6 | CCCn1cc(C(=O)NCc2cccnc2)c2cccnc21 | 580
7 | Cc1ccc(-c2csc(NC(=O)c3ccc4c(c3)OCO4)n2)cc1 | 1060
8 | Clc1cccc(CNc2cc(-n3ccnc3)ncn2)c1 | 589
9 | COc1ccc(C(=O)Nc2cccc(-c3ccc(S(C)(=O)=O)nn3)c2)cc1OC | 681
10 | O[C@@H]1CCCCC1N1CCC(c2ccccc2)CC1 (some centres not stated) | 702
11 | CCOc1ccc(CC(=O)N2CCN(Cc3nc(C)cs3)CC2)cc1 | 586
12 | Cc1ccn2cc(-c3ccc(NS(=O)(=O)c4cccc([N+](=O)[O-])c4)cc3)nc2n1 | 662
13 | COc1cc(C(=O)Nc2nc3c(C)cc(Cl)cc3s2)cc(OC)c1OC | 1120
14 | C[C@@H](NCCCc1cccc(C(F)(F)F)c1)c1cccc2ccccc12 | 828
15 | O=C(COc1ccccc1)Nc1ccccc1-c1nc2ccccc2s1 | 1320

Now from value to compound:

Row | RP-LC retention time [s] | Structure (SMILES)
16 | 749 | Cc1ccc(NC(=O)C2CCN(C(=O)C3Sc4ccccc4NC3=O)CC2)cc1 (configuration not stated)
17 | 740 | O=C(NCCc1nc(-c2ccccc2)cs1)C1CC(=O)N(c2n[nH]c3ccccc23)C1 (configuration not stated)
18 | 767 | CC(C)CC(NC(=O)Cc1ccc(Cl)cc1)C(=O)Nc1nc2ccccc2[nH]1 (configuration not stated)
19 | 643 | CCC(C)NC(=O)Cn1cnc2nc(N3CCCC(C(=O)NC(C)C)C3)sc2c1=O (configuration not stated)
20 | 950 | CCOC(=O)c1c(C)c(CCC(=O)N2CCC(C)CC2)n(C)c1C
21 | 929 | CC1(C)CC(=O)C2=C(C1)N(CC1CCCO1)C(=O)C2(NC(=O)c1ccc(F)cc1)C(F)(F)F (configuration not stated)
22 | 830 | COC(=O)c1c(NC2CCCC2)c2cccc(Cl)c2[nH]c1=O
23 | 1060 | O=C(NCc1ccc(F)cc1Cl)c1sc2ncccc2c1-n1cccc1
24 | 611 | CS(=O)(=O)N1CCN(C(=O)C2CCCN(c3ccc(-c4ccc(F)cc4)nn3)C2)CC1 (configuration not stated)
25 | 823 | O=C(Cn1cnc2nc3c(cc2c1=O)CCCC3)Nc1cccc(C(F)(F)F)c1
26 | 876 | NC(=O)C1CCN(c2nc3ccccc3nc2S(=O)(=O)Cc2ccc(Cl)cc2)CC1
27 | 795 | COc1cc(NC(=O)Cn2nc3c(N4CCSCC4)nccn3c2=O)cc(OC)c1
28 | 791 | CC(=O)N1CCc2cc(N3CC(C(=O)Nc4cccc(C(F)(F)F)c4)CC3=O)ccc21 (configuration not stated)
29 | 630 | CCOC1CCN(C(=O)NC(C)C)CC1
30 | 740 | O=S(=O)(c1cccnc1)N1CCc2[nH]nc(-c3ccc(F)cc3)c2C1
31 | 627 | Cc1ccc(C)c2c(=O)c3c([nH]c12)CCN(CC(=O)Nc1ccccc1)C3
32 | 1380 | CCC1CCCCN1C(=O)Cc1c(C)nn(-c2nc(-c3ccc(C)cc3)cs2)c1C (configuration not stated)
33 | 752 | CCN1c2ccccc2C(=O)NC12CCN(C(=O)c1cccc(OC)c1)CC2
34 | 574 | CCCN1CCN(C(=O)C2CCN(c3nc4cccnc4s3)CC2)CC1
35 | 608 | O=C(Nc1ccccc1C(=O)NCCCN1CCN(C2CCCCC2)CC1)C1=CSCCO1
36 | 1030 | Cc1ccccc1OCC(=O)N1CCCC(COCc2ccccc2)C1 (configuration not stated)
37 | 833 | CCc1noc([C@@H]2CC(F)(F)CN2C(=O)c2ccoc2C)n1
